Here are results for twelve compounds from PubChem BioAssay AID214 (DTP/NCI, 2004).

This assay relates to B6C3F1 mice, colon carcinoma 38 s.c., T/C. Nature of the assay: NCI In Vivo Anticancer Drug Screen. Data for tumor model Colon Carcinoma 38 (subcutaneous) in B6C3F1 mice. As to conditions: endpoint: median tumor weight (est.), higher = larger tumour. The protocol: The antitumor activity of compounds was measured in mice bearing transplantable tumors. Survival or tumor size were measured and the results are expressed as the measurement made in the treated group (T) divided by the measurement made in the vehicle treated control group (C). The tumor model used in this assay is Colon Carcinoma 38 (subcutaneous) in B6C3F1 mice

The mark [1] stands for this setting: dose: 100.0 mg/kg/injection, schedule: Q07DX002 (ip), vehicle: saline.
Where [2] appears, read: dose: 50.0 mg/kg/injection, schedule: Q07DX002 (ip), vehicle: Klucel (hydroxypropylcellulose) (HPC).
Setting [3] is: dose: 100.0 mg/kg/injection, schedule: Q07DX002 (ip), vehicle: Klucel (hydroxypropylcellulose) (HPC).
The mark [4] stands for this setting: dose: 200.0 mg/kg/injection, schedule: Q07DX002 (ip), vehicle: Klucel (hydroxypropylcellulose) (HPC).
[5] abbreviates: dose: 400.0 mg/kg/injection, schedule: Q07DX002 (ip), vehicle: Klucel (hydroxypropylcellulose) (HPC).

Records with an inconclusive call do not appear.

As for `CCC(/C=C/C1OC(=O)C=CC1C)=C\C(C)C/C=C/C(C)=C/C(C)C(=O)C(C)C(O)C(C)C/C(C)=C/C(=O)O` (stereo unspecified), the T/C reads like this: (dose: 100.0 micrograms/kg/injection, schedule: Q07DX002 (ip), vehicle: other) 56 % of control; (dose: 200.0 micrograms/kg/injection, schedule: Q07DX002 (ip), vehicle: other) 105 % of control; (dose: 400.0 micrograms/kg/injection, schedule: Q07DX002 (ip), vehicle: other) 85 % of control; (dose: 800.0 micrograms/kg/injection, schedule: Q07DX002 (ip), vehicle: other) 102 % of control; (dose: 1600.0 micrograms/kg/injection, schedule: Q07DX002 (ip), vehicle: other) 98 % of control.

As for `N=c1ccn2c(n1)OC1C(O)C(CO)OC12` (stereo unspecified), the T/C by setting is: (dose: 100.0 mg/kg/injection, schedule: Q07DX003 (ip), vehicle: saline) 90 % of control; (dose: 200.0 mg/kg/injection, schedule: Q07DX003 (ip), vehicle: saline) 98 % of control; (dose: 400.0 mg/kg/injection, schedule: Q07DX003 (ip), vehicle: saline) 92 % of control; (dose: 800.0 mg/kg/injection, schedule: Q07DX003 (ip), vehicle: saline) 61 % of control; (dose: 1600.0 mg/kg/injection, schedule: Q07DX003 (ip), vehicle: saline) 40 % of control.

As to `O=C(CCCN1CCC(C(O)c2ccc(F)cc2)CC1)c1ccc(F)cc1` (stereo unspecified), the T/C reads like this: (dose: 12.5 mg/kg/injection, schedule: Q07DX002 (ip), vehicle: saline with Tween-80) 59 % of control; (dose: 25.0 mg/kg/injection, schedule: Q07DX002 (ip), vehicle: saline with Tween-80) 49 % of control; (dose: 50.0 mg/kg/injection, schedule: Q07DX002 (ip), vehicle: saline with Tween-80) 92 % of control; (dose: 100.0 mg/kg/injection, schedule: Q07DX002 (ip), vehicle: saline with Tween-80) 67 % of control.

Consider `COC(=O)NC1C(C)OC(OC2C/C=C(/C)C3C=CC4C(OC5CC(OC6CCC(OC7CC(O)C(OC8CCC(O)C(C)O8)C(C)O7)C(C)O6)C(OC(C)=O)C(C)O5)C(C)CC(C)C4C3(C)/C(O)=C3/C(=O)OC4(CC(C=O)=CC(O)C4/C=C\2C)C3=O)CC1(C)[N+](=O)[O-]` (stereo unspecified), for which the T/C reads like this: (dose: 2.5 mg/kg/injection, schedule: Q07DX002 (ip), vehicle: water) 86 % of control; (dose: 5.0 mg/kg/injection, schedule: Q07DX002 (ip), vehicle: water) 96 % of control; (dose: 10.0 mg/kg/injection, schedule: Q07DX002 (ip), vehicle: water) 89 % of control; (dose: 20.0 mg/kg/injection, schedule: Q07DX002 (ip), vehicle: water) 82 % of control.

As for `O=C(O)Cc1cccc2c(=O)cc(C3CCCCC3)oc12`, the T/C was 90 % of control under setting [1] and 82 % of control (dose: 400.0 mg/kg/injection, schedule: Q07DX002 (ip), vehicle: saline).

As to `[Cl][Hg][Cl]`, the T/C is 80 % of control (dose: 1.56 mg/kg/injection, schedule: Q07DX002 (ip), vehicle: saline) and 124 % of control (dose: 3.12 mg/kg/injection, schedule: Q07DX002 (ip), vehicle: saline).

With `CC[C@@H](C)[C@@H]1NC(=O)C(NC(=O)C(CC(C)C)N(C)C(=O)C2CCCN2C(=O)C(C)O)C(C)OC(=O)C(Cc2ccc(OC)cc2)N(C)C(=O)C2CCCN2C(=O)C(CC(C)C)NC(=O)C(C)C(=O)C(C(C)C)OC(=O)C[C@H]1O` (stereo partly specified), the T/C (dose: 600.0 micrograms/kg/injection, schedule: Q07DX002 (ip), vehicle: distilled water + alcohol) is 118 % of control.

`CC1CC(C)CC(C)C(O)/C(C#N)=C/C=C/CC(C2CCCC2C(=O)O)OC(=O)CC(O)C(C)C1` (stereo unspecified): the T/C reads like this: (dose: 4.0 mg/kg/injection, schedule: Q07DX002 (ip), vehicle: Klucel (hydroxypropylcellulose) (HPC)) 83 % of control; (dose: 8.0 mg/kg/injection, schedule: Q07DX002 (ip), vehicle: Klucel (hydroxypropylcellulose) (HPC)) 81 % of control; (dose: 16.0 mg/kg/injection, schedule: Q07DX002 (ip), vehicle: Klucel (hydroxypropylcellulose) (HPC)) 108 % of control; (dose: 32.0 mg/kg/injection, schedule: Q07DX002 (ip), vehicle: Klucel (hydroxypropylcellulose) (HPC)) 115 % of control.

On to `Oc1ccc(CCl)c2cccnc12`, for which the T/C (dose: 25.0 mg/kg/injection, schedule: Q07DX002 (ip), vehicle: saline) was 91 % of control; the T/C (dose: 50.0 mg/kg/injection, schedule: Q07DX002 (ip), vehicle: saline) is 105 % of control; the T/C under setting [1] is 94 % of control; the T/C (dose: 200.0 mg/kg/injection, schedule: Q07DX002 (ip), vehicle: saline) is 106 % of control.

As to `Oc1c(Cl)cc(Cl)cc1C=NCCSc1ccc(Cl)cc1`, the T/C under setting [2] was 118 % of control, the T/C under setting [3] is 81 % of control, the T/C under setting [4] is 109 % of control and the T/C under setting [5] was 63 % of control.

On to `C=C(Cl)C(=NC(C)(C)C)Nc1ccccc1C`, for which the T/C under setting [3] was 88 % of control.

As to `CN(C)c1ccc2c(SCC(=O)OCC(=O)[C@@]3(O)CC[C@H]4[C@@H]5CCC6=CC(=O)C=C[C@]6(C)[C@H]5C(=O)C[C@@]43C)c3ccc(N(C)C)cc3nc2c1`, the T/C reads like this: under setting [2], 105 % of control; under setting [3], 78 % of control; under setting [4], 81 % of control; under setting [5], 82 % of control; (dose: 800.0 mg/kg/injection, schedule: Q07DX002 (ip), vehicle: Klucel (hydroxypropylcellulose) (HPC)) 16 % of control.
